Measurements taken from patent publication US20130137767A1, “Methods and Compositions for Treating Arthritis with Docosahexaenoic Acid” (DSM IP ASSETS B.V., priority 2010, published 2013).

Experiments:
Format in all cases: in vivo, Male DBA/1O1aHsd mice
[1] = CIA-EE (Example 1): serum phospholipid fatty acid levels by FAME analysis
Procedure: (§1) The appropriate ethyl esters were blended into the base diet to provide approximately 2500 and 5000 mg/kg polyunsaturated fatty acid (PUFA) per day. The human equivalent doses (HED) were approximately 12 g/day and 22 g/day, respectively. The 2500 mg/kg EE diets contained the following fat blend: 1 part flax, 12 parts HCOC and 23 parts HO-SAFF. The 5000 mg/kg EE diets contained a fat blend consisting of: 1 part flax, 5 parts HCOC and 20 parts HO-SAFF. All study diets provided a total of 7% fat. Animals were fed study diets for approximately 30 days prior to the first collagen injection at day 0 and remained on the diets until study termination (day 45). Animals in the No Disease control and Dexamethasone groups were fed the diet containing OA-EE. Following a second collagen injection on day 21, arthritis severity was scored daily. Blood samples were collected at day 21 and day 45. Joints, 6 per an animal, were collected for histology and pathology on day 45.
Serum phospholipid fatty acid levels were determined by FAME analysis (FIG. 5). Treatment with DHA-EE elevated serum DHA levels 3-4 fold, as compared the OA-EE (placebo) control, whereas DPAn6-EE elevated serum DPAn6 20-35 fold. Serum EPA levels were elevated when dosed with the DHA/EPA-EE blend 8-15 fold and 4-7 fold when dosed with DHA-EE, as compared to the OA-EE (placebo) control. […]

anti-collagen antibodies = assay: CIA-EE (Example 1): anti-collagen antibody production; conditions: measured day 21 and day 45, vs OA-EE placebo
Procedure: as §1
Anti-collagen antibody production was measured prior to the antigen challenge (day 21) and at study termination (day 45). […] Means (n=5)±SD. *p<0.05**p<0.01.

[2] = system: Collagen-Induced Arthritis (CIA); assay: CIA-EE (Example 1): paw, knee and six-joint histopathology; conditions: day 45, vs OA-EE placebo, FIG. 4
Description: Male DBA/1O1aHsd mice (3.5-4 weeks of age) were randomized by weight and enrolled in the study after a three day quarantine in which animals were fed the AlN-93G diet with a modified base fat: 1 part flax seed oil (flax), 9 parts hydrogenated coconut oil (HCOC) and 21 parts high-oleic safflower oil (HO-SAFF). 15 animals were enrolled per study group, with the exception of the No Disease control that had 4 animals. Study groups consisted of:
as §1
Placebo-treated diseased animals had histopathology changes, consistent with those seen in type II collagen induced arthritis, in most joints, with scores ranging from normal to severe. Microscopic alteration included infiltration of synovium and periarticular tissue with neutrophils and mononuclear inflammatory cells (inflammation), marginal zone pannus and bone resorption and cartilage damage (proteoglycan loss, chondrocyte death and collagen matrix destruction). Four-paw, knee and joint parameters were assigned a quantitative score 0=normal, 1=minimal, 2=mild, 3=moderate, 4=marked, 5=severe and a total score was determined per animal.

[3] = system: Collagen-Induced Arthritis (CIA); assay: CIA EE vs. TG (Example 2): paw, knee and six-joint histopathology; conditions: day 45
Procedure: Male DBA/1O1aHsd mice were enrolled, quarantined, and feed study diets following the protocols described in Example 1 (CIA-EE Study). EE and TG oils were blended into the base diet to provide 2500 mg/kg PUFA per day (HED approximately 12 g/day). A single dose of PUFA per day (HED approximately 5 g/day). The 1000 mg/kg DHA-EE dose was equivalent to the amount of DHA administered in the DHA/EPA-EE blend. The fat blend the 2500 mg/kg EE diets consisted of approximately: 1 part flax, 12 parts HCOC and 23 parts HO-SAFF; 1000 mg/kg EE diet: 1 part flax, 12 parts HCOC and 32 parts HO-SAFF; 2500 mg/kg DHASCO® oil diet: 1 part flax, 8 parts HCOC, 17 parts HO-SAFF and 15 parts soybean oil; 2500 mg/kg DHA-S oil diet: 1 part flax, 5 parts HCOC, 16 parts HO-SAFF and 6 parts soybean oil. 2500 mg/kg DHA/EPA (Nordic Naturals fish oil) diet: 1 part flax, 21 parts HCOC, 18 parts HO-SAFF and 13 parts soybean oil. The monounsaturate control animals received a fat blend of 1 part flax, 7 parts HCOC and 25 parts HO-SAFF. All study diets provided a total of 7% fat. Animals in the No Disease control and Dexamethasone groups were fed the diet containing OA-EE. Mice received collagen injections on day 0 and day 21, as described previously. Blood samples were collected at day 21 and day 45. At day 45, joints were collected for histology and pathology. Placebo-treated diseased animals had histopathology changes, consistent with those seen in type II collagen induced arthritis, in most joints, with scores ranging from normal to severe. Microscopic alteration included infiltration of synovium and periarticular tissue with neutrophils and mononuclear inflammatory cells (inflammation), marginal zone pannus and bone resorption and cartilage damage (proteoglycan loss, chondrocyte death and collagen matrix destruction). Four-paw, knee and joint parameters were assigned a quantitative score 0=normal, 1=minimal, 2=mild, 3=moderate, 4=marked, 5=severe and a total score was determined per animal.

SMILES: CC/C=C\C/C=C\C/C=C\C/C=C\C/C=C\C/C=C\CCC(=O)OCC [DHA-EE]
- serum ARA levels, decrease vs OA-EE (placebo) control ([1]; 2500 mg/kg): approximately 90%
- serum ARA levels, decrease vs OA-EE (placebo) control ([1]; 5000 mg/kg): approximately 90%
- level of plasma anti-collagen antibodies (anti-collagen antibodies; 2500 mg/kg): reduced the level of anti-collagen antibodies
- level of plasma anti-collagen antibodies (anti-collagen antibodies; 5000 mg/kg): reduced the level of anti-collagen antibodies
- knee histopathology parameters ([2]; 2500 mg/kg): significantly reduced
- paw histopathology parameters (inflammation, pannus, cartilage damage, bone damage) ([2]; 2500 mg/kg): significantly reduced
- six-joint mean histopathology parameters ([2]; 2500 mg/kg): significantly reduced
- paw histopathology parameters (inflammation, pannus, cartilage damage, bone damage) ([2]; 5000 mg/kg): reduced paw histopathology scores
- six-joint mean histopathology parameters ([2]; 5000 mg/kg): significantly reduced
- knee histopathology parameters ([3]; 1000 mg/kg): not significantly affected
- paw histopathology parameters ([3]; 1000 mg/kg): not significantly affected
- six-joint histopathology parameters ([3]; 1000 mg/kg): not significantly affected
- six-joint histopathology parameters ([3]; 2500 mg/kg PUFA, FIG. 10): significantly reduced towards normal
- paw histopathology parameters (inflammation, pannus, cartilage damage, bone damage) ([3]; 2500 mg/kg PUFA, vs placebo control, FIG. 10): reduced
